{"source": "paper PMC11365428", "about": "(The Journal of Biological Chemistry, 2024)", "key": {"apTKRPR-B [1]": {"target": "T1, apTKRPR-B (Aplysia californica, UniProt A0AAU7STS1)", "T1 sequence (A0AAU7STS1 1-447)": "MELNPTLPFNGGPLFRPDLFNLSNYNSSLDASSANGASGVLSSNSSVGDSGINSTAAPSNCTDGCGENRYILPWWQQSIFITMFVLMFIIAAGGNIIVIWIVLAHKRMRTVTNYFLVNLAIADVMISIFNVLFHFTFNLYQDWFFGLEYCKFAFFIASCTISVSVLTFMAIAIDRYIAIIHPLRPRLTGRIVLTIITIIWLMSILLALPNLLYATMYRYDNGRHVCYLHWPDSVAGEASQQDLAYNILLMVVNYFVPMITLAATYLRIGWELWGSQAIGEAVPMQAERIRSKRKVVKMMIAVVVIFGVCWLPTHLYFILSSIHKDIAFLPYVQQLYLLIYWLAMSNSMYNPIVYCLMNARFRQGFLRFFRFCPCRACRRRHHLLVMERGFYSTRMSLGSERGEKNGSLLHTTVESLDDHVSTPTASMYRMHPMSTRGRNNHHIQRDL", "assay": "Receptor desensitization assay, protocol 2 (repeated agonist exposure), apTKRPR-B", "type": "cell-based", "conditions": "10 μM pretreatment 2-60 min without LiCl, wash, second 10 μM application for 15 min with LiCl; % of control; n = 5", "method": "Therefore, we adopted two protocols to study the desensitization of apTKRPRs. The protocols were performed using a procedure modified from previous work ([87], [88], [89]).\nProtocol 2 ([89]): To simulate repeated stimulation with an agonist, we examined agonist-induced desensitization by quantifying the accumulation level of IP1 after two applications of the agonist/ligand. Because the IP1 accumulation assay involves using LiCl to stop the degradation of IP1, in this protocol, LiCl was applied only during the second application of the agonist. Specifically, to elicit desensitization, cells were first exposed to 10 μM apTKRP-2b in the absence of LiCl for various pretreatment durations (pretreatment stage/phase Ⅰ). After this agonist exposure, cells were washed (three times) rapidly with PBS (phase Ⅱ), and the wash was consistently performed in each experiment. Responsiveness of the receptor was then assessed by measuring intracellular concentrations of IP1 accumulation in response to a second application of 10 μM apTKRP-2b for 15 min in the presence of LiCl (phase Ⅲ) (Fig. S11)."}, "apTKRPR-B [2]": {"target": "T1, apTKRPR-B", "assay": "Cell surface expression by ELISA after ligand exposure, FLAG-apTKRPR-B", "type": "cell-based", "conditions": "10 µM, different durations, compared with 0 min, n = 4", "method": "Cell surface expression determination of apTKRPRs and mutant receptors, all with FLAG tags, was performed using a procedure modified from previous work ([64], [122], [123], [124]). Specifically, CHO-K1 cells were cultured in F-12K medium (Gibco, 21127-022) with 10% FBS (Genial, G11-70500) at 37 °C in a humidified incubator containing 5% CO2. When the cells were grown to 70 to 90% confluence, transfection experiments were performed (see “Cell culture and transfection” section). After 24 h, transfected cells were plated in 96-well white clear-bottom cell culture plates (Corning, 3610) at a density of 20,000 cells in 100 μl per well and incubated overnight. The following day, culture media was aspirated and cells were washed twice with 200 μl of 1× PBS (Procell, PB180327). Then, 100 μl of 1× PBS containing 5% (w/v) BSA was added to each well and incubated at room temperature. After 30 min, 100 μl of 1:10,000 anti-FLAG M2-horseradish peroxidase conjugate (Sigma-Aldrich, Cat A8592) was added to each well and incubated for 30 min at 37 °C. Cells were washed twice with 200 μl of 1× PBS and then incubated with 200 μl of TMB Chromogen Solution (Sangon Biotech, E661007) for 30 min at 37 °C in the dark. Finally, 50 μl of ELISA Stopping Solution (Sangon Biotech, E661006) was added to each well to stop the reaction. The absorbance at 450 nm was measured using a Tecan Spark microplate reader. […]"}}, "note": "Non-standard residues stand in square brackets, D forms with d. Residues, ends and D or L forms follow the SMILES beside them. pGlu = O=C1CC[C@@H](C(=O)O)N1"}
{"smiles": "CC(C)C[C@H](NC(=O)[C@H](Cc1c[nH]cn1)NC(=O)[C@@H]1CCCN1C(=O)[C@@H]1CCC(=O)N1)C(=O)NCC(=O)N[C@@H](Cc1ccccc1)C(=O)N[C@@H](Cc1c[nH]cn1)C(=O)NCC(=O)N[C@@H](CO)C(=O)N[C@@H](CCCNC(=N)N)C(N)=O", "note": "[apTKRP-2b] ([pGlu]PHLGFHGSR-NH2)", "values": [{"measurement": "IP1 accumulation after pretreatment, apTKRPR-B (protocol 2)", "setting": "apTKRPR-B [1]", "value": "IP1 accumulation was less after the second exposure"}, {"measurement": "cell surface receptor expression of apTKRPR-B after agonist exposure", "setting": "apTKRPR-B [2]", "value": "significant loss of receptor expression"}]}
